Assay results: patent publication US20110178396A1, “Nicotinamide Derivatives” (CRC FOR BIOMEDICAL IMAGING DEVELOPMENT LTD., priority 2008, published 2011)

Tested on: B16F0 melanoma tumour
Experiment: Biodistribution in B16 melanoma bearing mice
Type: in vivo, C57BL/6J mice
Details: C57BL/6J mice; for Organ distribution Intestine / Organ distribution Liver / Organ distribution Spleen / Organ distribution Stomach / Organ distribution Thyroid / Organ distribution Tumour: B16F0 tumour, mean ± S.D.; for Organ distribution Intestine / Organ distribution Liver / Organ distribution Spleen / Organ distribution Stomach / Organ distribution Thyroid / Organ distribution Tumour / Uptake Lung / uptake BLOOD / uptake BRAIN / uptake HEART / uptake KIDNEY / uptake LIVER / uptake TUMOUR: n = 5; for tumour standardized uptake value (SUVt) / Uptake Lung / uptake BLOOD / uptake BRAIN / uptake HEART / uptake KIDNEY / uptake LIVER / uptake TUMOUR: B16 tumour; for Uptake Lung / uptake BLOOD / uptake BRAIN / uptake HEART / uptake KIDNEY / uptake LIVER / uptake TUMOUR: mean ± SD
Procedure: Animal experiments were performed in compliance with the NHMRC Australian Code of Practice for the care and use of animals for scientific purposes. Female C57BL/6J black and BALB/c nude albino mice of 5 weeks age were obtained from the Animal Resources Centre, Western Australia. B16F0 murine melanoma cells were originally obtained from European Collection of Cell Cultures (UK) and A375 human amelanotic melanoma cells were originally obtained from American Type Culture Collection (USA). Before transplantation, B16F0 and A375 melanoma cells were maintained as a monolayer in RPMI culture medium supplemented with 10% foetal calf serum and antibiotics and passaged with trypsinisation. Early passages were frozen and stored in liquid nitrogen. Cells were passaged to P=10 and then discarded. Frozen aliquots were grown in a monolayer culture to between 80-95% confluence and for transplantation were trypsinised and washed with Ca^2+ and Mg^2+ free phosphate buffered saline (PBS). For inoculation, B16F0 melanoma cells were resuspended in Ca^2+ and Mg^2+ free PBS at 3 or 5×10^6 viable cells per ml and 0.1 ml was subcutaneously injected at the left flank of 6-7 weeks old C57BL/6J mice. Eleven days later, tumours could be palpated in >98% of inoculated animals. A375 human melanoma cells were resuspended at 1×10^7 viablecells per ml and 0.1 ml was injected subcutaneously at the left flank of 6 weeks old BALB/c nude mice and 25-26 days later tumours could be palpated with ˜60% of inoculated animals developing tumours.
Eleven days (B16F0 melanoma) and 25 days (A375 human melanoma) after tumour transplantation, the [^18F]nicotinamides (0.5-1.5 MBq, 100 μl) and [^123I]nicotinamide (0.37-0.74 MBq, 100 μl) derivatives were injected intravenously via the tail vein into mice (15-18 g). Time points of 1, 3, 6, 24, 48, 72 h after injection were chosen for determining the distribution of each compound in various organs and tissues for the iodine-123 labelled compounds and between 15 min and 6 hours (e.g. 15 min, 30 min, 1 h, 2 h, 4 h or 6 h) were chosen for the ^18F-labelled compounds. At defined times post injection, groups of mice (n=5) were weighed, sacrificed by CO2 administration followed by cervical dislocation and dissected. Selected organs were weighed and their radioactivity measured with a γ-counter. The remaining activity in the carcass was also determined in order to obtain the total activity in the mouse at defined time points. The fraction of injected activity (% ID) in the organ was calculated by comparison with suitable dilutions of the injected dose. Then, the radioactivity concentration in the organ (% ID/g) was found by dividing the % ID for each organ by the weight of the organ.

Organ distribution Intestine (1 h): 15 ± 2 % ID/organ | Organ distribution Liver (1 h): 1.8 ± 0.3 % ID/organ | Organ distribution Spleen (1 h): 0.16 ± 0.16 % ID/organ | Organ distribution Stomach (1 h): 2.0 ± 0.2 % ID/organ | Organ distribution Thyroid (1 h): 0.37 ± 0.07 % ID/organ | Organ distribution Tumour (1 h): 1.3 ± 0.3 % ID/organ | Organ distribution Intestine (3 h): 5 ± 2 % ID/organ | Organ distribution Liver (3 h): 0.82 ± 0.08 % ID/organ | Organ distribution Spleen (3 h): 0.06 ± 0.05 % ID/organ | Organ distribution Stomach (3 h): 1.3 ± 0.3 % ID/organ | Organ distribution Thyroid (3 h): 1.1 ± 0.3 % ID/organ | Organ distribution Tumour (3 h): 1.0 ± 0.4 % ID/organ | Organ distribution Intestine (6 h): 2.8 ± 0.4 % ID/organ | Organ distribution Spleen (6 h): 0.05 ± 0.04 % ID/organ | Organ distribution Stomach (6 h): 1.2 ± 0.2 % ID/organ | Organ distribution Thyroid (6 h): 1.8 ± 1.0 % ID/organ | Organ distribution Tumour (6 h): 1.1 ± 0.3 % ID/organ | Organ distribution Intestine (24 h): 0.10 ± 0.02 % ID/organ | Organ distribution Liver (24 h): 0.12 ± 0.01 % ID/organ | Organ distribution Spleen (24 h): 0.01 ± 0.03 % ID/organ | Organ distribution Stomach (24 h): 0.04 ± 0.01 % ID/organ | Organ distribution Thyroid (24 h): 1.0 ± 0.3 % ID/organ | Organ distribution Tumour (24 h): 0.7 ± 0.1 % ID/organ | Organ distribution Intestine (48 h): 0.06 ± 0.01 % ID/organ | Organ distribution Liver (48 h): 0.06 ± 0.01 % ID/organ | Organ distribution Spleen (48 h): 0.00 ± 0.00 % ID/organ | Organ distribution Stomach (48 h): 0.02 ± 0.01 % ID/organ | Organ distribution Thyroid (48 h): 1.4 ± 0.3 % ID/organ | Organ distribution Tumour (48 h): 0.7 ± 0.4 % ID/organ | Organ distribution Intestine (72 h): 0.04 ± 0.01 % ID/organ | Organ distribution Liver (72 h): 0.04 ± 0.01 % ID/organ | Organ distribution Spleen (72 h): 0.01 ± 0.01 % ID/organ | Organ distribution Stomach (72 h): 0.01 ± 0.01 % ID/organ | Organ distribution Thyroid (72 h): 1.0 ± 0.6 % ID/organ | Organ distribution Tumour (72 h): 0.3 ± 0.1 % ID/organ | tumour standardized uptake value (SUVt) (1 h): 3.7 ± 1.0 | Uptake Lung (1 h): 1.4 ± 0.2 % ID/g | uptake BLOOD (1 h): 1.21 ± 0.17 % ID/g | uptake BRAIN (1 h): 0.14 ± 0.02 % ID/g | uptake HEART (1 h): 0.8 ± 0.1 % ID/g | uptake KIDNEY (1 h): 1.8 ± 0.5 % ID/g | uptake LIVER (1 h): 1.9 ± 0.3 % ID/g | uptake TUMOUR (1 h): 7.8 ± 1.7 % ID/g | tumour standardized uptake value (SUVt) (3 h): 7.4 ± 1.6 | Uptake Lung (3 h): 0.75 ± 0.07 % ID/g | uptake BLOOD (3 h): 0.92 ± 0.09 % ID/g | uptake BRAIN (3 h): 0.07 ± 0.01 % ID/g | uptake HEART (3 h): 0.4 ± 0.04 % ID/g | uptake KIDNEY (3 h): 0.8 ± 0.1 % ID/g | uptake LIVER (3 h): 0.9 ± 0.1 % ID/g | uptake TUMOUR (3 h): 6.0 ± 0.4 % ID/g | tumour standardized uptake value (SUVt) (6 h): 12 ± 1 | Uptake Lung (6 h): 0.47 ± 0.11 % ID/g | uptake BLOOD (6 h): 0.58 ± 0.14 % ID/g | uptake BRAIN (6 h): 0.04 ± 0.01 % ID/g | uptake HEART (6 h): 0.26 ± 0.06 % ID/g | uptake KIDNEY (6 h): 0.5 ± 0.1 % ID/g | uptake LIVER (6 h): 0.6 ± 0.1 % ID/g | uptake TUMOUR (6 h): 5.9 ± 0.7 % ID/g | tumour standardized uptake value (SUVt) (24 h): 37 ± 9 | Uptake Lung (24 h): 0.03 ± 0.02 % ID/g | uptake BLOOD (24 h): 0.03 ± 0.01 % ID/g | uptake BRAIN (24 h): 0.01 % ID/g | uptake HEART (24 h): 0.04 ± 0.01 % ID/g | uptake KIDNEY (24 h): 0.03 ± 0.01 % ID/g | uptake LIVER (24 h): 0.12 ± 0.02 % ID/g | uptake TUMOUR (24 h): 3.2 ± 0.9 % ID/g | tumour standardized uptake value (SUVt) (48 h): 22 ± 5 | Uptake Lung (48 h): 0.04 ± 0.01 % ID/g | uptake BRAIN (48 h): 0.01 % ID/g | uptake HEART (48 h): 0.03 ± 0.01 % ID/g | uptake KIDNEY (48 h): 0.03 ± 0.01 % ID/g | uptake LIVER (48 h): 0.08 ± 0.02 % ID/g | uptake TUMOUR (48 h): 2.2 ± 0.4 % ID/g | tumour standardized uptake value (SUVt) (72 h): 18 ± 12 | Uptake Lung (72 h): 0.04 ± 0.04 % ID/g | uptake BLOOD (72 h): 0.02 ± 0.01 % ID/g | uptake BRAIN (72 h): 0.01 % ID/g | uptake HEART (72 h): 0.06 ± 0.02 % ID/g | uptake KIDNEY (72 h): 0.02 ± 0.02 % ID/g | uptake LIVER (72 h): 0.04 ± 0.01 % ID/g | uptake TUMOUR (72 h): 1.4 ± 0.3 % ID/g
SMILES: CCN(CC)CCNC(=O)c1cncc(I)c1 [[^123I]11, N-(2-(diethylamino)ethyl)-5-iodonicotinamide]
